Test results as given in patent publication US8501936B2 (priority 2009, dated 2013).

Legend:
human JAK2 = human JAK2 (Homo sapiens (Human), UniProt O60674); conditions: read-out: JAK2 IC50
human FAK = human FAK (Homo sapiens (Human), UniProt Q05397); conditions: read-out: FAK IC50
Sequence of human FAK (Q05397 whole entry): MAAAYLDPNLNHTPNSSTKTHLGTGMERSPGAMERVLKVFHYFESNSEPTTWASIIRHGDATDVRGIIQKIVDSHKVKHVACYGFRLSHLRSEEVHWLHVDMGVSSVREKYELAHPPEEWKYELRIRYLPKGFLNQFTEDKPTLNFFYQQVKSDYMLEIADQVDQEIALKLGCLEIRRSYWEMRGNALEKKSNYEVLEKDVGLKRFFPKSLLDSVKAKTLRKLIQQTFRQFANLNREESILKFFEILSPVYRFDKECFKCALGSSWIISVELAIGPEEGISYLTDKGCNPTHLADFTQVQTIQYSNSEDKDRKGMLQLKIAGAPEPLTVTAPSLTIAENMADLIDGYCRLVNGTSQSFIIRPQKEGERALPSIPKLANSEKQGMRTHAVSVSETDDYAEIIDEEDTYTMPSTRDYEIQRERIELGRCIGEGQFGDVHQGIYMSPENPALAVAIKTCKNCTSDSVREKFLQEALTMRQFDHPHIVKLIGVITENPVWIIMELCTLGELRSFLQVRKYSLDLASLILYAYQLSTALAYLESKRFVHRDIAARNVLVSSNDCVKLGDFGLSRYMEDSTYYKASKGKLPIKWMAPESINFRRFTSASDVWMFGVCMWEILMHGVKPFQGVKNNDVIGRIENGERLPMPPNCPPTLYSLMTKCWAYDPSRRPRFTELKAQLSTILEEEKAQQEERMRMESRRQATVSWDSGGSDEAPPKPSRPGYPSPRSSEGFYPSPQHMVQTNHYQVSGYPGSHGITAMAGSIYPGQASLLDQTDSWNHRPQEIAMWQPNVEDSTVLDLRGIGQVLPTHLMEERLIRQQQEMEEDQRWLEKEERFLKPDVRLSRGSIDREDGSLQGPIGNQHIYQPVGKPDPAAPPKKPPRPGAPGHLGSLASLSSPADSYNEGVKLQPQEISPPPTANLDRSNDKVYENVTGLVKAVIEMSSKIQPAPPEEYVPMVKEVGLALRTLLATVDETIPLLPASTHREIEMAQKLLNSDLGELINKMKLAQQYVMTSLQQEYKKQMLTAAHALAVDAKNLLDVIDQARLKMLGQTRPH

Sequence of human JAK2 (O60674 815-1132): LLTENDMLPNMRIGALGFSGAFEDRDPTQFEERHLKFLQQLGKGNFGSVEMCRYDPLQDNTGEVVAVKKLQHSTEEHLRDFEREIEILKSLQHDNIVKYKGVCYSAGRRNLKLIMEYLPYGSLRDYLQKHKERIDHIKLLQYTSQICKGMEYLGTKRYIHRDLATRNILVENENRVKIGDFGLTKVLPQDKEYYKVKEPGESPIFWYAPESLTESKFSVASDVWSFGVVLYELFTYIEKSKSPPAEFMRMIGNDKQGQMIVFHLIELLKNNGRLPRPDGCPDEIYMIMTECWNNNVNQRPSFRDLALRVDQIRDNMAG

| SMILES | IC50 (human JAK2) | IC50 (human FAK) |
| --- | --- | --- |
| CN1CCN(Cc2ccc(Nc3nc4c(-c5ccc(S(C)(=O)=O)cc5)cccn4n3)cc2)CC1 [Example 44, [8-(4-Methanesulfonyl-phenyl)-[1,2,4]triazolo[1,5-a]pyridin-2-yl]-[4-(4-methyl-piperazin-1-ylmethyl)-phenyl]-amine] | 2.4 nM | 1130 nM |
| COc1ccc(C(F)(F)F)cc1-c1cccn2nc(Nc3cccc(N4CCN(C)CC4)c3)nc12 [Example 255, [8-(2-Methoxy-5-trifluoromethyl-phenyl)-[1,2,4]triazolo[1,5-a]pyridin-2-yl]-[3-(4-methyl-piperazine-1-yl)-phenyl]-amine] | 158 nM | 1220 nM |
| CN1CCN(c2cccc(Nc3nc4c(-c5ccc(S(C)(=O)=O)cc5)cccn4n3)c2)C(=O)C1 [Example 204, 1-{3-[8-(4-Methanesulfonyl-phenyl)-[1,2,4]triazolo[1,5-a]pyridin-2-ylamino]-phenyl}-4-methyl-piperazin-2-one] | 1.63 nM | 10000 nM |
| COc1ncccc1-c1cccn2nc(Nc3ccc(C4CCN(CC(=O)N(C)C)CC4)cc3)nc12 [Example 273, 2-(4-{4-[8-(2-Methoxy-pyridin-3-yl)-[1,2,4]triazolo[1,5-a]pyridine-2-ylamino]-phenyl}-piperidin-1-yl)-N,N-dimethyl-acetamide] | 251 nM | 999 nM |
| COc1cccc(CNc2cccn3nc(Nc4ccc(OC)nc4)nc23)c1 [Example 394, N(8)-(3-Methoxy-benzyl)-N(2)-(6-methoxy-pyridin-3-yl)-[1,2,4]triazolo[1,5-a]pyridine-2,8-diamine] | 10000 nM | 10000 nM |
| CS(=O)(=O)c1ccc(-c2cccn3nc(Nc4ccc5c(c4)CCNCC5)nc23)c(OCC(F)F)c1 [Example 370, {8-[2-(2,2-Difluoro-ethoxy)-4-methanesulfonyl-phenyl]-[1,2,4]triazolo[1,5-a]pyridin-2-yl}-(2,3,4,5-tetrahydro-1H-3-benzazepin-7-yl)-amine] | 61.9 nM | 999 nM |
| CN1CCC(c2ccc(Nc3nc4c(Nc5ccccc5CS(C)(=O)=O)cccn4n3)cc2)CC1 [Example 165, N(8)-(2-Methanesulfonylmethyl-phenyl)-N(2)-[4-(1-methyl-piperidin-4-yl)-phenyl]-[1,2,4]triazolo[1,5-a]pyridine-2,8-diamine] | 39.9 nM | 2000 nM |
| CN1CCN(c2ccc(Nc3nc4c(-c5ccc(C(F)(F)F)cc5)cccn4n3)cc2)CC1 [Example 64, [4-(4-Methyl-piperazin-1-yl)-phenyl]-[8-(4-trifluoromethyl-phenyl)-[1,2,4]triazolo[1,5-a]pyridin-2-yl]-amine] | 3.1 nM | 1250 nM |
| COc1ccc(C(F)(F)F)cc1-c1cccn2nc(Nc3ccc4c(c3)CCN(C(=O)OC(C)(C)C)C4)nc12 [Example 336, 6-[8-(2-Methoxy-5-trifluoromethyl-phenyl)-[1,2,4]triazolo[1,5-a]pyridin-2-ylamino]-3,4-dihydro-1H-isoquinoline-2-carboxylic acid tert-butyl ester] | 1150 nM | 10000 nM |
| CC1(C)CCC(C)(C)c2cc(Nc3nc4c(-c5ccc(S(C)(=O)=O)cc5)cccn4n3)ccc21 [Example 28, [8-(4-Methanesulfonyl-phenyl)-[1,2,4]triazolo[1,5-a]pyridin-2-yl]-(5,5,8,8-tetramethyl-5,6,7,8-tetrahydro-naphthalen-2-yl)-amine] | 27.7 nM | – |
| COc1ccccc1Nc1nc2cccc(-c3cccc(S(C)(=O)=O)c3)n2n1 [Example 80, [5-(3-Methanesulfonyl-phenyl)-[1,2,4]triazolo[1,5-a]pyridin-2-yl]-(2-methoxy-phenyl)-amine] | 1210 nM | – |
| CC(C)(C)OC(=O)N1CCN(c2ccc(Nc3nc4cccc(-c5ccccc5)n4n3)cc2)CC1 [Example 77, 4-[4-(5-Phenyl-[1,2,4]triazolo[1,5-a]pyridin-2-ylamino)-phenyl]-piperazine-1-carboxylic acid tert-butyl ester] | 6.6 nM | – |
| COc1ccccc1Nc1nc2c(-c3ccc(S(C)(=O)=O)cc3)cccn2n1 [Example 25, [8-(4-Methanesulfonyl-phenyl)-[1,2,4]triazolo[1,5-a]pyridin-2-yl]-(2-methoxy-phenyl)-amine] | 1320 nM | – |
| COc1ccc(Nc2nc3c(N4CCN(C)CC4)cccn3n2)cc1 [Example 30, (4-Methoxy-phenyl)-[8-(4-methyl-piperazin-1-yl)-[1,2,4]triazolo[1,5-a]pyridin-2-yl]-amine] | 441 nM | – |
| COc1ccc(C(F)(F)F)cc1Nc1cccn2nc(Nc3cccc(N4CCN(C)CC4)c3)nc12 [Example 290, N(8)-(2-Methoxy-5-trifluoromethyl-phenyl)-N(2)-[3-(4-methyl-piperazin-1-yl)-phenyl]-[1,2,4]triazolo[1,5-a]pyridine-2,8-diamine] | 3000 nM | – |
| CN1CCN(c2ccc(Nc3nc4ccc(-c5ccc(S(C)(=O)=O)cc5)cn4n3)cc2)CC1 [Example 37, [6-(4-Methanesulfonyl-phenyl)-[1,2,4]triazolo[1,5-a]pyridin-2-yl]-[4-(4-methyl-piperazin-1-yl)-phenyl]-amine] | 2970 nM | – |
| CN1CCN(c2cccc(Nc3nc4c(Oc5ccc(S(C)(=O)=O)cc5)cccn4n3)c2)CC1 [Example 214, [8-(4-Methanesulfonyl-phenoxy)-[1,2,4]triazolo[1,5-a]pyridin-2-yl]-[3-(4-methyl-piperazin-1-yl)-phenyl]-amine] | 1650 nM | – |

| SMILES | IC50 (human JAK2) | IC50 (human FAK) |
| --- | --- | --- |
| Cc1cccn2nc(Nc3ccc(S(C)(=O)=O)cc3)nc12 [Example 265, (4-Methanesulfonyl-phenyl)-(8-methyl-[1,2,4]triazolo[1,5-a]pyridin-2-yl)-amine] | 2620 nM | – |
| CS(=O)(=O)c1ccc(-c2cccn3nc(Nc4ccc(OS(=O)(=O)C(F)(F)C(F)(F)C(F)(F)C(F)(F)F)cc4)nc23)cc1 [Example 45, 1,1,2,2,3,3,4,4,4-Nonafluoro-butane-1-sulfonic acid 4-[8-(4-methanesulfonyl-phenyl)-[1,2,4]triazolo[1,5-a]pyridin-2-ylamino]-phenyl ester] | 106 nM | – |
| CN1CCN(c2ccc(NC(=O)Nc3nc4cccc(-c5ccc(S(C)(=O)=O)cc5)n4n3)cc2)CC1 [Example 90, 1-[5-(4-Methanesulfonyl-phenyl)-[1,2,4]triazolo[1,5-a]pyridin-2-yl]-3-[4-(4-methyl-piperazin-1-yl)-phenyl]-urea] | 1530 nM | – |
| Cc1ccc(-n2cc(-c3cccn4nc(Nc5ccc(C6CCN(C(=O)OC(C)(C)C)CC6)cc5)nc34)cn2)cc1 [Example 287, 4-{4-[8-(1-p-Tolyl-1H-pyrazol-4-yl)-[1,2,4]triazolo[1,5-a]pyridine-2-ylamino]-phenyl}-piperidine-1-carboxylic acid tert-butyl ester] | 1690 nM | – |
| COc1ccc(Nc2nc3c(C4=CCN(S(C)(=O)=O)CC4)cccn3n2)cc1 [Example 34, [8-(1-Methanesulfonyl-1,2,3,6-tetrahydro-pyridin-4-yl)-[1,2,4]triazolo[1,5-a]pyridin-2-yl]-(4-methoxy-phenyl)-amine] | 1 nM | – |
| CC(C)(C)OC(=O)N1CCc2ccc(Nc3nc4c(-c5cc(C(F)(F)F)ccc5F)cccn4n3)cc2CC1 [Example 269, [8-(2-Fluoro-5-trifluoromethyl-phenyl)-[1,2,4]triazolo[1,5-a]pyridin-2-ylamino]-[2,3,4,5-tetrahydro-1H-benzo[d]azopin-7-yl]-3-carboxylic acid tert-butyl ester] | 586 nM | – |
| CC(C)(C)OC(=O)N1CCc2ccc(Nc3nc4c(-c5cccc6c5OC(F)(F)O6)cccn4n3)cc2CC1 [Example 243] | 2110 nM | – |
| COc1cccc(Nc2nc3cccc(-c4cccc(S(C)(=O)=O)c4)n3n2)c1 [Example 79, [5-(3-Methanesulfonyl-phenyl)-[1,2,4]triazolo[1,5-a]pyridin-2-yl]-(3-methoxy-phenyl)-amine] | 15.1 nM | – |
| COc1ccc(Nc2nc3c(NC4CCN(S(C)(=O)=O)CC4)cccn3n2)cc1 [Example 41, N(8)-(1-Methanesulfonyl-piperidin-4-yl)-N(2)-(4-methoxy-phenyl)-[1,2,4]triazolo[1,5-a]pyridine-2,8-diamine] | 375 nM | – |
| COc1ccccc1Nc1nc2c(-c3cccc(C(F)(F)F)c3)cccn2n1 [Example 21, (2-Methoxy-phenyl)-[8-(3-trifluoromethyl-phenyl)-[1,2,4]triazolo[1,5-a]pyridin-2-yl]-amine] | 3000 nM | – |
| CN1CCN(c2ccc(Nc3nc4c(O)cccn4n3)cc2)CC1 [Example 264, 2-[4-(4-Methyl-piperazin-1-yl)-phenylamino]-[1,2,4]triazolo[1,5-a]pyridin-8-ol] | 567 nM | – |
| CC(C)(C)OC(=O)N1CCC(c2ccc(Nc3nc4c(-c5cnn(-c6ccc(F)cc6)c5)cccn4n3)cc2)CC1 [Example 280, 4-{4-[8-(1-(4-Fluoro-phenyl)-1H-pyrazol-4-yl)-[1,2,4]triazolo[1,5-a]pyridine-2-ylamino]-phenyl}-piperidine-1-carboxylic acid tert-butyl ester] | 1110 nM | – |
| c1cc(-c2ccncc2)c2nc(Nc3ccc(OCCN4CCCC4)cc3)nn2c1 [Example 15, (8-pyridin-4-yl-[1,2,4]triazolo[1,5-a]pyridin-2-yl)-[4-(2-pyrrolidin-1-yl-ethoxy)-phenyl]-amine] | 3000 nM | – |
| CN1CCN(c2cccc(Nc3nc4c(-c5ccccc5S(C)(=O)=O)cccn4n3)c2)CC1 [Example 67, [8-(2-Methanesulfonyl-phenyl)-[1,2,4]triazolo[1,5-a]pyridin-2-yl]-[3-(4-methyl-piperazin-1-yl)-phenyl]-amine] | 2500 nM | – |
| COc1ccc(Nc2nc3c(N4CCN(S(C)(=O)=O)CC4)cccn3n2)cc1 [Example 33, [8-(4-Methanesulfonyl-piperazin-1-yl)-[1,2,4]triazolo[1,5-a]pyridin-2-yl]-(4-methoxy-phenyl)-amine] | 60.4 nM | – |
| COc1cnc(-c2cccn3nc(Nc4ccc(C5CCN(C(=O)OC(C)(C)C)CC5)cc4)nc23)cn1 [Example 284, 4-{4-[8-(5-Methoxy-pyrazin-2-yl)-[1,2,4]triazolo[1,5-a]pyridine-2-ylamino]-phenyl}-piperidine-1-carboxylic acid tert-butyl ester] | 1490 nM | – |
